# Source: paper PMC3063827, “Myosin-cross-reactive antigen (MCRA) protein from Bifidobacterium breve is a FAD-dependent fatty acid hydratase which has a function in stress protection” (BMC Biochemistry, 2011)
# Target: T1, MCRA (myosin-cross-reactive antigen; FAD-dependent fatty acid hydratase) (Bifidobacterium breve, UniProt F1CWI2)
# T1 construct: 1878 bp gene), N-terminal 6x His tag, pET28 (pBBI2), E. coli BL21 Star, HisTrap purified, ~66 kDa on SDS-PAGE; primers begin at MYYSSGNYE
# T1 sequence (F1CWI2 1-625): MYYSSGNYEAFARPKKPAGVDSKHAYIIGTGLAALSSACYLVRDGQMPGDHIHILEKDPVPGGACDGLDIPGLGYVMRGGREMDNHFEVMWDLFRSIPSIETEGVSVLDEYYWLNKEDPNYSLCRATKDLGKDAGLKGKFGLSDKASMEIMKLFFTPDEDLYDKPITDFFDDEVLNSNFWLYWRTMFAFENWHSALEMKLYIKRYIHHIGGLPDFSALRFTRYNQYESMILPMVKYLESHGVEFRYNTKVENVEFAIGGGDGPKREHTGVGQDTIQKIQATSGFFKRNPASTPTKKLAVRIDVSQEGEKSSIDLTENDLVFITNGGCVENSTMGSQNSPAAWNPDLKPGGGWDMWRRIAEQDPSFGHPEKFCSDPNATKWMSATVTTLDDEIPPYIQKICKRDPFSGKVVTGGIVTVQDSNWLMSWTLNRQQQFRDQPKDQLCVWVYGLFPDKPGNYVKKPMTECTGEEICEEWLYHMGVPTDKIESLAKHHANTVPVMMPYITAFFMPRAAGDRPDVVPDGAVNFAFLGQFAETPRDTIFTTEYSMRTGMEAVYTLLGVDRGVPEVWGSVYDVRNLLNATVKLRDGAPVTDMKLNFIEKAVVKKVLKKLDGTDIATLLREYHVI
# Assay: UV-Vis absorption spectrum of purified protein and of supernatant after heat denaturation
# Format: binding
# Settings: non-covalent, co-purified; flavin-like maxima ~450 and 370 nm; FAD identity rests on spectrum and analogy to S. pyogenes MCRA (FMN also run as reference)
smiles,measurement,value
Cc1cc2nc3c(=O)[nH]c(=O)nc-3n(C[C@H](O)[C@H](O)[C@H](O)COP(=O)(O)OP(=O)(O)OC[C@H]3O[C@@H](n4cnc5c(N)ncnc54)[C@H](O)[C@@H]3O)c2cc1C [FAD],UV-Vis absorption spectrum of purified protein and of supernatant after heat den,flavin cofactor is released in the solution upon protein denaturation by heat
